Measurements from patent publication US20260069594A1, “USE OF AN AGENT CAPABLE OF INHIBITING THE ACTIVATION OF MAIT CELLS FOR THE TREATMENT OF RHEUMATOID ARTHRITIS” (INSTITUT NATIONAL DE LA SANTÉ ET DE LA RECHERCHE MÉDICALE, priority 2022, published 2026).

Columns and labels:
[1] = test system: MAIT cells; experiment: mBSA-induced arthritis in wild type mice treated with Ac6FP or PBS; format: in vivo; conditions: wild type male mice, intraperitoneal twice a week
Excerpt: Arthritis was induced by intra-articular injection of methylated bovine serum albumin (mBSA) in MR1^−/− (depleted in MAIT cells) and wild type C57BL/6 mice, previously immunized with mBSA. We included 9 mice in each group, only females, which were 6 to 8 weeks old. Mice were daily evaluated for signs of joint inflammation, assessed by measuring tarsal thickness and scored on a scale of 0-4, where 0=no change, 1=local swelling and redness of digits, 2=mild swelling and redness, 3=severe swelling and redness, 4=necrosis. Mice were sacrificed on day 8, and the paws were separated, fixed with 4% paraformaldehyde and decalcified for histopathological assessment. All mice developed arthritis, with a peak of inflammation at day 1.
Arthritis was induced by intra-articular injection of methylated bovine serum albumin (mBSA) in wild type mice, treated with Acetyl-6-formylpterin (Ac6FP), a non-activating ligand of MAIT cells or PBS, previously immunized with mBSA. Ac6FP or PBS were injected twice a week in intraperitoneal. We included 6 wild type mice in each group, only males, which were 8 weeks old. Mice were daily evaluated as described previously. All mice developed arthritis, with a peak of inflammation at day 1.
Values are the mean+/−SEM of 6 mice in each group. Test: Student T test. Ac6FP: Acetyl-6-formylpterin. AUC: Area Under Curve. […]

[2] = test system: rheumatoid arthritis; conditions: cited from earlier work

CC(=O)Nc1nc2ncc(C=O)nc2c(=O)[nH]1 [Ac6FP, Acetyl-6-formylpterin]
clinical score (scale 0-4) compared to PBS group ([1]; daily evaluation): lower clinical score
area under curve (AUC) of clinical score, median ([1]; n=6, vs. 5.5 in PBS group, p=0.07): 3

CN(Cc1cnc2nc(N)nc(N)c2n1)c1ccc(C(=O)N[C@@H](CCC(=O)O)C(=O)O)cc1 [MTX, methotrexate]
patients reaching remission states ([2]; RA patients at 6-12 months): 10-20%
patients reaching low disease activity states ([2]; early RA patients, with or without corticosteroids): 25-50%
